Molecules are shown by their SMILES. Read-outs that look alike come from different tables or passages of the source.

For assay [1], the target named is human 5-HT3 receptor (Homo sapiens (Human), UniProt P46098). The experiment in a line: Radioligand binding assay (SPA format), affinity for the human 5-HT3 receptor. The settings on record: for inhibition at 10 µM: read-out: h5-HT3A % inhibition @ 10 μM. How it is done:
The relative affinity of the various compounds for the human 5-HT3 receptor was measured in a radioligand binding assay, using a scintillation proximity assay (SPA) format. Test compounds were dissolved to 10 mM in 100% DMSO, then serially diluted at 10× assay concentrations in 100% DMSO in 96-well polypropylene plates and further diluted to 4× assay concentrations with the assay buffer. Samples were incubated in 50 mM Tris-HCl, pH 7.5, 3 mM MgCl2, 1 mM EDTA and 10% DMSO with 10 nM [9-methyl-^3H]BRL-43694 (Perkin Elmer), 3 μg of human 5-HT3 receptor membranes (Perkin Elmer) and 0.5 mg/mL SPA beads (WGA PVT, Amersham Biosciences) in a final volume of 0.2 mL. Binding reactions were set up in wells of PicoPlates-96 (Perkin Elmer) by adding consecutively 50 μL of each competing compound or buffer, SPA beads, the radioligand and 5-HT3 receptor membranes. After an overnight incubation at room temperature on a Nutator mixer, plates were centrifuged for 15 min at 1,500 rpm, followed by incubation in the dark for 30 min. Radioactivity was counted in the TopCount microplate counter (Perkin Elmer) for 5 min. Total binding control contained compound dilution buffer only; nonspecific binding was determined in the presence of 30 μM MDL-72222. Specific binding was determined by subtracting nonspecific binding from total binding. All experiments were performed in duplicate using ten concentrations of competing ligand, with ondansetron included as a control in every run. IC50 values were determined from specific binding data using XLfit4.1 curve fitting software from IDBS Ltd. The inhibition constant (Ki) was calculated from the Cheng Prusoff equation: (Ki=IC50/(1+(L/KD)), where L=concentration of radioligand in the assay, and KD=affinity of the radioligand for the receptor.

Assay [2] addresses h5-HT3A receptor (Homo sapiens (Human), UniProt P46098). The experiment in a line: Agonist activity at recombinant human 5-HT3A receptors, [Ca2+]i in HEK293 cells. It is filed as cell-based. The settings on record: at 1 μM, normalized to the response of 5-HT (5-HT response = 100% at 3 μM); NR = no response. Here is the method: Human embryonic kidney (HEK293) cells expressing the h5-HT3A receptor subunit were seeded directly into poly-D-lysine coated, black-walled, clear bottomed, 96 well plates with approximately 1×10^5 cells per well. After 48 hrs incubation in DMEM growth media (100 μL), cells were washed twice (each 200 μL) in Hank's balanced salt solution (Invitrogen) before incubation (1 hr) with Fluo-4 acetoxymethyl (AM) ester (100 μL, 2.5 μM; Molecular Probes). Cells were washed twice (each 200 μL) in Hank's balanced salt solution and incubated for a further 30 min in Hank's balanced salt solution (100 μL) prior to assay (25° C.). Alteration in [Ca^2+]i was measured (relative fluorescence units [RFU]) using a Flexstation (excitation 488 nm and emission 515 nm; frequency of recording 3 sec). After recording for at least 80 sec, vehicle (Hank's balanced salt solution) or drug was automatically administered to the well (50 μL). Baseline was calculated from the 5 data points immediately prior to the first drug administration and the maximum response was that achieved over the 240 sec following drug administration. In all experiments the muscarinic receptor agonist carbachol (1 mM) was added 240 sec after the test drug administration.

[3] abbreviates: [9-methyl-3H]BRL-43694 10 nM, human 5-HT3 receptor membranes, Cheng Prusoff, read-out: h5-HT3A Ki.
Setting [4] is: 10 μM compound, radioligand binding.

Chain of human 5-HT3 receptor (P46098 24-478): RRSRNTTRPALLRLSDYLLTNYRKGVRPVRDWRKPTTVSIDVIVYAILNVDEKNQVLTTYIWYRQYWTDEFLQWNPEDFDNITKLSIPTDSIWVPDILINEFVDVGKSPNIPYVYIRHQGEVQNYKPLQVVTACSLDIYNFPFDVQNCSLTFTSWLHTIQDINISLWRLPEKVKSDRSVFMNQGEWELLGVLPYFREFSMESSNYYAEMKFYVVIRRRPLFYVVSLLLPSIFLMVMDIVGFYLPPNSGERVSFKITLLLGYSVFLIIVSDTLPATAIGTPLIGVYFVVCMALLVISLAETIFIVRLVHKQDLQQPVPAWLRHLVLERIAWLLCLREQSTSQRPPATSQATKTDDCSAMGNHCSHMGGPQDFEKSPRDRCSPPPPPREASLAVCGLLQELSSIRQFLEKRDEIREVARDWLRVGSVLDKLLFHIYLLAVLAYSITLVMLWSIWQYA
Chain of h5-HT3A receptor (P46098 24-478): as above

As to `O=C1c2cccc3ccn(c23)CCN1[C@H]1CN2CCC1CC2` [Example 1, (R)-2-(quinuclidin-3-yl)-3,4-dihydro-[1,4]diazepino[6,7,1-hi]indol-1(2H)-one], the Ki in assay [1] (setting [3]) is 0.074 µM.
Take `O=C1c2cccc3ccn(c23)CCN1[C@@H]1CN2CCC1CC2` [Example 2, (S)-2-(quinuclidin-3-yl)-3,4-dihydro-[1,4]diazepino[6,7,1-hi]indol-1(2H)-one]: the “HEK293 h5-HT3A % agonist response” value in assay [2] is recorded as 7%. Besides, the Ki in assay [1] (setting [3]) worked out at 0.004 µM.
For `Cc1cn2c3c(cccc13)C(=O)N([C@@H]1CN3CCC1CC3)CC2` [Example 3, (S)-7-methyl-2-(quinuclidin-3-yl)-3,4-dihydro-[1,4]diazepino[6,7,1-hi]indol-1(2H)-one], in that order: 13% and 0.005 µM.
With `Cc1cn2c3c(cc(Cl)cc13)C(=O)N([C@@H]1CN3CCC1CC3)CC2` [Example 4, (S)-9-chloro-7-methyl-2-(quinuclidin-3-yl)-3,4-dihydro-[1,4]diazepino[6,7,1-hi]indol-1(2H)-one], the Ki in assay [1] (setting [3]) is 0.0002 µM.
Still for that read-out and setting: in the case of `O=C1c2cccc3ccn(c23)CCCN1[C@H]1CN2CCC1CC2` [Example 5, (R)-2-(quinuclidin-3-yl)-2,3,4,5-tetrahydro-1H-[1,5]diazocino[3,2,1-hi]indol-1-one] it was 0.416 µM; in that of `O=C1c2cccc3ccn(c23)CCCN1[C@@H]1CN2CCC1CC2` [Example 6, (S)-2-(quinuclidin-3-yl)-2,3,4,5-tetrahydro-1H-[1,5]diazocino[3,2,1-hi]indol-1-one], 0.205 µM.
On the same count and under the same terms, next, `O=C1c2cc(Cl)cc3cnn(c23)CCN1[C@@H]1CN2CCC1CC2` [Example 8, (S)-4-chloro-7-(quinuclidin-3-yl)-8,9-dihydro-[1,4]diazepino[6,7,1-hi]indazol-6(7H)-one]: 0.0005 µM; `O=C1c2cc(F)cc3cnn(c23)CCN1[C@@H]1CN2CCC1CC2` [Example 9, (S)-4-fluoro-7-(quinuclidin-3-yl)-8,9-dihydro-[1,4]diazepino[6,7,1-hi]indazol-6(7H)-one]: 0.006 µM.
The molecule `COc1cc2c3c(cnn3CCN([C@@H]3CN4CCC3CC4)C2=O)c1` [Example 10, (S)-4-methoxy-7-(quinuclidin-3-yl)-8,9-dihydro-[1,4]diazepino[6,7,1-hi]indazol-6(7H)-one] displayed an inhibitory constant (Ki) in assay [1] of 0.014 µM.
Take `Cc1cc2c3c(cnn3CCN([C@@H]3CN4CCC3CC4)C2=O)c1` [Example 11, (S)-4-methyl-7-(quinuclidin-3-yl)-8,9-dihydro-[1,4]diazepino[6,7,1-hi]indazol-6(7H)-one]: the inhibitory constant (Ki) in assay [1] (setting [3]) is 0.0008 µM.
On the same count and under the same terms, next, `O=C1c2cc(O)cc3cnn(c23)CCN1[C@@H]1CN2CCC1CC2` [Example 12, (S)-4-hydroxy-7-(quinuclidin-3-yl)-8,9-dihydro-[1,4]diazepino[6,7,1-hi]indazol-6(7H)-one]: 0.002 µM; `O=C1c2cccc3ncn(c23)CCN1[C@@H]1CN2CCC1CC2` [Example 13, 6-((S)-quinuclidin-3-yl)-5,6-dihydroimidazo[4,5,1-jk][1,4]benzodiazepin-7(4H)-one]: 0.032 µM.
`Cc1nc2cccc3c2n1CCN([C@H]1CN2CCC1CC2)C3=O` [Example 14, 2-methyl-6-((R)-quinuclidin-3-yl)-5,6-dihydroimidazo[4,5,1-jk][1,4]benzodiazepin-7(4H)-one]: the inhibition at 10 µM in assay [1] is 40%.
Same read-out and setting: next, `Cc1nc2cccc3c2n1CCN([C@@H]1CN2CCC1CC2)C3=O` [Example 15, 2-methyl-6-((S)-quinuclidin-3-yl)-5,6-dihydroimidazo[4,5,1-jk][1,4]benzodiazepin-7(4H)-one]: 80%; `CCc1nc2cccc3c2n1CCN([C@H]1CN2CCC1CC2)C3=O` [Example 16, 2-ethyl-6-((R)-quinuclidin-3-yl)-5,6-dihydroimidazo[4,5,1-jk][1,4]benzodiazepin-7(4H)-one]: 39%.
`CCc1nc2cccc3c2n1CCN([C@@H]1CN2CCC1CC2)C3=O` [Example 17, 2-ethyl-6-((S)-quinuclidin-3-yl)-5,6-dihydroimidazo[4,5,1-jk][1,4]benzodiazepin-7(4H)-one]: the Ki in assay [1] (setting [3]) amounted to 0.13 µM.
As for `CC(C)c1nc2cccc3c2n1CCN([C@H]1CN2CCC1CC2)C3=O` [Example 18, 2-isopropyl-6-((R)-quinuclidin-3-yl)-5,6-dihydroimidazo[4,5,1-jk][1,4]benzodiazepin-7(4H)-one], the inhibition at 10 µM in assay [1] (setting [4]) turned out to be 51%.
Still for that read-out and setting: next, `CC(C)c1nc2cccc3c2n1CCN([C@@H]1CN2CCC1CC2)C3=O` [Example 19, 2-isopropyl-6-((S)-quinuclidin-3-yl)-5,6-dihydroimidazo[4,5,1-jk][1,4]benzodiazepin-7(4H)-one]: 74%.
Turning to `O=C1c2cccc3nc(-c4ccccc4)n(c23)CCN1[C@H]1CN2CCC1CC2` [Example 20, 2-phenyl-6-((R)-quinuclidin-3-yl)-5,6-dihydroimidazo[4,5,1-jk][1,4]benzodiazepin-7(4H)-one], in assay [1] (setting [4]), the inhibition at 10 µM is 23%.
As for `O=C1c2cccc3nc(-c4ccccc4)n(c23)CCN1[C@@H]1CN2CCC1CC2` [Example 21, 2-phenyl-6-((S)-quinuclidin-3-yl)-5,6-dihydroimidazo[4,5,1-jk][1,4]benzodiazepin-7(4H)-one], the Ki in assay [1] (setting [3]) came out at 0.406 µM.
As to `O=C1c2cccc3nc(-c4ccc(F)cc4)n(c23)CCN1[C@@H]1CN2CCC1CC2` [Example 22, 2-(4-fluorophenyl)-6-((S)-quinuclidin-3-yl)-5,6-dihydroimidazo[4,5,1-jk][1,4]benzodiazepin-7(4H)-one], the inhibition at 10 µM in assay [1] (setting [4]) was 69%.
In the case of `O=C1c2cccc3nc(-c4ccccc4Cl)n(c23)CCN1[C@@H]1CN2CCC1CC2` [Example 23, 2-(2-chlorophenyl)-6-((S)-quinuclidin-3-yl)-5,6-dihydroimidazo[4,5,1-jk][1,4]benzodiazepin-7(4H)-one], the inhibitory constant (Ki) in assay [1] (setting [3]) turned out to be 0.206 µM.
`O=C1c2cccc3[nH]c(=O)n(c23)CCN1[C@H]1CN2CCC1CC2` [Example 24, 6-((R)-quinuclidin-3-yl)-5,6-dihydroimidazo[4,5,1-jk][1,4]benzodiazepine-2,7(1H, 4H)-dione]: in assay [1], the inhibition at 10 µM was found to be 75%.
Consider `O=C1c2cccc3[nH]c(=O)n(c23)CCN1[C@@H]1CN2CCC1CC2` [Example 25, 6-((S)-quinuclidin-3-yl)-5,6-dihydroimidazo[4,5,1-jk][1,4]benzodiazepine-2,7(1H, 4H)-dione], for which the “HEK293 h5-HT3A % agonist response” value in assay [2] is reported as 83%. Also, in assay [1] (setting [3]), the Ki is 0.007 µM.
`O=C1c2cccc3c2N(CCN1[C@@H]1CN2CCC1CC2)S(=O)(=O)N3` [Example 26, 6-((S)-quinuclidin-3-yl)-5,6-dihydro-1H-[1,2,5]thiadiazolo[4,3,2-jk][1,4]benzodiazepin-7(4H)-one 2,2-dioxide]: the inhibitory constant (Ki) in assay [1] (setting [3]) was found to be 0.701 µM.
In assay [1], `COc1ccc(Cn2cc3c4c(cccc42)C(=O)N(CC24CCN(CC2)CC4)CC3)cc1` [Example 27, 6-(4-methoxybenzyl)-2-(quinuclidin-4-ylmethyl)-2,3,4,6-tetrahydro-1H-azepino[5,4,3-cd]indol-1-one] displayed a Ki of 0.008 µM.
In the case of `O=C1c2cccc3[nH]cc(c23)CCN1CC12CCN(CC1)CC2` [Example 28, 2-(quinuclidin-4-ylmethyl)-2,3,4,6-tetrahydro-1H-azepino[5,4,3-cd]indol-1-one], in assay [1] (setting [3]), the Ki was determined as 0.03 µM.
Same read-out and setting: in the case of `O=C1c2cccc3cnn(c23)CCN1CC12CCN(CC1)CC2` [Example 32, 7-(quinuclidin-4-ylmethyl)-8,9-dihydro-[1,4]diazepino[6,7,1-hi]indazol-6(7H)-one] it was 0.073 µM.

(Values after patent US9045501B2, “5-HT3 receptor modulators, methods of making, and use thereof” (Albany Molecular Research, Inc., priority 2009, dated 2015).)
